Results on one compound are retold here after patent publication US12440475B2, “Hodgkin lymphoma therapy” (priority 2016, dated 2025).

Data set [1] has as its system Hodgkin lymphoma cell lines. As to the kind of experiment: Mitotic index and metaphases after EDO-S101 treatment, all cell lines. The class given is cell-based, human. How it is done:
(§1) The mitotic index and chromosomal aberrations for each of the cell lines were evaluated after treatment with either 20 μmol or 10 μmol EDO-S101 in DMSO. Each cell line was cultured at 37° C. in the presence of RPMI 1640 supplemented with 10% FCS and antibiotics. Colcemid (0.1 ug/ml) was added 2 h before harvesting and slides with chromosomes in metaphase were prepared following the standard methanol/acetic acid (3/1, v/v) procedure. The slides were stored at −20° C. until use.
(§2) FISH was performed using a combination of standard procedures from the recommended protocols for chromosome analysis, following telomere and centromere staining, using PNA probes. In all, 100 metaphases were scored per in vitro dose exposure.
(§3) The mitotic index was determined by measurement of the sum of all cells in prophase, metaphase, anaphase and telophase divided by the total number of cells.

The test system of another data set is L1236. As to the kind of experiment: Cell cycle checkpoint proteins and gene expression, L1236. The note with it: naïve L1236; EDO-S101 alone. It is filed as cell-based, human.
Data set [2] relates to Hodgkin lymphoma cell lines. The experiment in a line: Proliferation and IC50 determination (MTS assay; manual counting using Trypan blue). The class given is cell-based. As to conditions: Homo sapiens, 48 h, range over all cell lines. As for the experimental part:
Nine Hodgkin lymphoma cell lines were cultured at 37° C. in 24-well plates at a concentration of 0.3×10^6 cells/ml in the presence of EDO-S101 at concentrations of 0, 5, 10, 15 and 20 μmol in DMSO for 24 hours and 48 hours and the proliferation of the cells was determined using a non-radioactive cell proliferation MTS assay with CellTiter 96® Aqueous One solution reagent obtained from Promega® (this is a colorimetric method for determining the number of viable cells in a proliferation comprising a tetrazolium compound [3-(4,5-dimethylthiazol-2-yl)-5-(3-carboxymethoxyphenyl)-2-(4-sulfophenyl)-2H-tetrazolium, inner salt; MIS). The proliferation was plotted against concentration of EDO-S101 for treatment after both 24 and 48 hours.

A further data set has as its system L1236-R100. The experiment in a line: Viable cell count and IC50, bendamustine-resistant cell line. The class given is cell-based, human. How it is done: (§4) • (a) Five Hodgkin lymphoma cell lines (KMH2, HDML2, L540, L1236 and L426) were cultured separately in the presence of bendamustine, vorinostat and EDO-S101 dissolved in DMSO at 37° C. L1236-derived Hodgkin lymphoma cell lines were selected as they have an acquired stable resistance to bendamustine (R100) or an ability to display continuous growth upon extended exposure to sub-lethal concentrations of bendamustine (R25, R50 and R75). A detailed description of the L1236-R Hodgkin lymphoma cell lines is disclosed in De Filippi et al, ASH 2015, Abstract. #2479. In these tests, the L1236-100R bendamustine resistant strain was used. […] Control cells were cultured in the same final concentration of DMSO. The number of viable cells was assessed at 24, 48 and 72 hours through a Countess™ automated cell counter (Invitrogen), each experiment being repeated three times and the results given being the mean of the three results±SD.

Data set [3] is described as follows: Weight of xenografted NSG mice after EDO-S101. The class given is in vivo. How it is done:
Two independent experiments were performed to investigate the dose-effect of EDO-S101 in NSG mice eight weeks after xenografting with L428 cells as in Example 8. The aim of the protocol shown in FIG. 8B was to evaluate the effect of sequential treatment with a moderate dose of 60 mg/kg given at an interval of three weeks.
This weight loss was also observed in mice treated with the vehicle. In contrast, the weight of the control mice receiving only freshly prepared phosphate buffered saline (PBS) buffered to 7.3-7.4 increased up to 11 weeks and then started to decrease.
The toxicity of the dose of 80 mg/kg compared to 60 mg/kg was investigated, as compared to the control groups vehicle and PBS.

For data set [4], the system named is L1236-R100, L1236/DMSO and L1236. As to the kind of experiment: Viable cell count and IC50, three L1236 cell lines. The class given is cell-based. As to conditions: Homo sapiens, L-1236; all cell lines tested, including R100. How it is done:
as §4

A further data set has as its system L428. As to the kind of experiment: Clonogenic survival in methylcellulose, L428. The class given is cell-based, human. As to conditions: very low doses (0.1 and 0.5 μmol). As for the experimental part:
(§5) In all examples, the human Hodgkin lymphoma-derived cell lines L428, L428-c, KMH2, L591, L540, L1236, HDLM2 and SUP-HD were obtained from Dr Steffen Junker (Aarhus University Denmark). All cell lines were cultured in Gibco RPMI 1640 medium supplemented with Glutamax, 10% FBS and antibiotics at 37° C. […] The immunophenotype, P53 status and MSI characterization of the Hodgkin lymphoma cell lines was determined using anti-CD30, CD15, CD20 and CD14 antibodies.
(§6) This test was performed on four Hodgkin lymphoma cell lines (L428, L428s, KMH2 and L540). Each was cultured with EDO-S101 at doses of 0, 0.1, 0.5, 1, 10 and 20 μmol in DMSO. The cell lines were cultured in methylcellulose (Stem cell Technologies) at a concentration of 10^5/ml at 37° C. and 5% CO2. The surviving fraction was determined by measuring the viability of colonies generated before and after exposure. Only colonies with more than 50 cells were counted. Each data point represents the average and SD from three independent experiments performed in triplicate.

In data set [5] the test system is KMH2. The experiment in a line: Clonogenic survival in methylcellulose, KMH2. It is filed as cell-based, human. As to conditions: lowest doses (0.1 and 0.5 μmol). As for the experimental part: as §5, §6
Data set [6] relates to Hodgkin lymphoma cell lines (KMH2, HDML2, L540, L1236 and L426). The experiment in a line: IC50 comparison of bendamustine, vorinostat and EDO-S101, five cell lines. The class given is cell-based, human. As for the experimental part:
as §4

The test system of data set [7] is KMH2. The experiment in a line: Mitotic index and chromosomal aberrations, KMH2. It is filed as cell-based, human. As for the experimental part:
as §1, §2, §3

The next data set concerns L540. The experiment in a line: Mitotic index, L540. It is filed as cell-based, human. How it is done:
as §1, §2, §3

A further data set concerns L428s. The experiment in a line: Clonogenic survival in methylcellulose, L428s. The class given is cell-based, human. As to conditions: very low doses (0.1 and 0.5 μmol). As for the experimental part:
as §5, §6

A word on the IC50: it is the concentration that inhibits the measured activity by half. A higher IC50 goes with lower potency. Turning to `Cn1c(CCCCCCC(=O)NO)nc2cc(N(CCCl)CCCl)ccc21` [EDO-S101], the metaphases observed entry in data set [1] (10 μmol) is “only a few metaphases of poor quality”; in data set [1] (20 μmol, any cell line), “No metaphases were observed”. The “sensitivity in mitotic index assay” value in [1] (all Hodgkin lymphoma cell lines, 24 h of treatment) was “remarkably high sensitivity”. The “cell cycle checkpoint proteins, cellular and gene expression changes” value with L1236 is “activated cell cycle checkpoint proteins and induced cellular and gene expression changes compatible with the triggering of apoptosis”. The IC50 in data set [2] was in the range of 1.6 to 6.3 µM; in [4], 1 to 3 µM; in [6] (Homo sapiens, range over all cell lines tested, including L1236-R), 1 to 2 µM. Also, the viable cells result with L1236-R100 (R100, 48 hours after treatment with 50 μM) is reported as “no viable cells”. Moreover, the “anti-proliferative activity compared with vorinostat” value with L1236-R100 (bendamustine-resistant cell line R100) is on record as “greater than that of vorinostat”. The “weight loss, 60 mg/kg versus 80 mg/kg” value in [3] (single dose 60 mg/kg or 80 mg/kg) is on record as “no significant difference”. In data set [3] (treated versus untreated mice), the “weight of the mice or the different organs” value was “No significant difference”. Besides, in [3] (two doses of 60 mg/kg three weeks apart), the weight of mice result was “weight loss following each administration which was regained after several weeks”. Moreover, the “clones observed (clonogenic survival)” value in the data set on L428 is on record as “only macrophagic clones being observed”; in the data set with KMH2 [5], “only a few clones”; in the data set on L428s, “only macrophagic clones being observed”. Besides, the “IC50s relative to bendamustine” value in data set [6] (tumour cells of Hodgkin lymphoma) is “about ten-fold lower than those of bendamustine”. Further, the mitotic index entry with KMH2 [7] and in the data set with L540 was “very low mitotic index” in each case. In addition, the “chromosomal aberrations in metaphase” value with KMH2 [7] (telomere and centromere staining) was “numerous chromosomal aberrations”.
